These results are taken from patent US20090117593A1, “T. Cruzi-derived neurotrophic agents and methods of use therefor” (Tufts University, priority 2006, published 2009).

The test system of test [1] is PC12 cells. In kind it is cell-based. Particulars: serum-free RPMI/0.2% BSA, collagen coated dishes, 16-17 hours.
In test [2] the test system is PC12 cells. Put plainly: Protection of PC12 cells from apoptosis induced by trophic factor withdrawal (DAPI, TUNEL). In kind it is cell-based. The note with it: serum-free RPMI-1640/0.2% BSA, 17 hours, DAPI or TUNEL. An excerpt: PC12 cells were obtained from ATCC (Manassas, Va. (Accession No. CRL-1721)) and cultured on collagen-coated dishes in RPMI 1640 supplemented with 10% horse serum and 5% fetal bovine serum (Greene, L., and Tishler, A., Proc. Natl. Acad. Sci. USA, 73:2424-2428 (1976)). For differentiation and survival experiments, cells were washed three times in serum-free RPMI/0.2% BSA, plated in the same medium in collagen-coated plastic dishes at 2×10^5/ml, without and with growth factors, TS, recombinant proteins, synthetic peptides, for the time and concentrations indicated in the Figures.
Cell staining with 4,6-diamino-2-phenylindole (DAPI). Cells were fixed with 4% formaldehyde in PBS for 5 minutes, washed with PBS, stained with 10 μg/ml DAPI (Sigma) for 2 minutes, washed with PBS, and visualized under UV light using a fluorescent microscope. About 300-400 cells were examined under the microscope to determine the percentage of apoptotic cells.
Cell DNA nick end labeling (TUNEL) (Gavrieli, Y. et al., J. Cell. Biol., 119:493-501 (1992)) assay was performed using a kit purchased from Boehringer Mannheim as described by the manufacturer.
Protection against apoptosis of PC12 cells in serum-free medium containing a test agent (agent N) (e.g., protection induced by TS, TS fragments, NGF or other growth factors), was calculated by the formula: 100%−[(apoptosis(%) of cells kept in RPMI containing test agent N÷apoptosis (%) of cells kept in RPMI)×100%]. Testing the effect of Wortmannin (Sigma) and LY294002 (Sigma) in inhibiting the neuroprotection of TS was performed following the protocol described by others (Yao, R., and Cooper, G., Science, 267:2003-2006 (1995); D'Mello, et al., J. Neurosci., 17:1548-1560 (1997)). In brief, PC12 cells were switched from growth medium to RPMI without and with TS or various other growth factors. After 24 hours, Wortmannin and LY294002 were added to the cultures. After another 24 hours, cells were examined for apoptosis by the DAPI assay, as above.

The test system of test [3] is IL-6. Nature of the test: IL-6 secretion by HIMEC (ELISA). In kind it is cell-based, human. Particulars: 24 hours. How it is done: (§1) Primary cultures of human intestinal microvascular endothelial cells (HIMEC) isolated from normal jejunal mucosa/submucosal tissue were prepared as described (Strong et al., Gastroenterology 114:1244-1256 (1998)). The HIMEC were cultured in fibronectin-coated plasticware in MCDB medium (Sigma) supplemented with 20% FBS, 90 μg/ml heparin and 50 μg/ml endothelial cell growth factor (Sigma). T-24 cells (ATCC Accession No. HTB-4) were cultured in M199 medium supplemented with 10% FBS. PBMC were purified by Ficoll-Paque gradient as described (Current Protocols in Immunology, pp 7.1.1-7.1.2). Vero cells (ATCC Accession No. CCL-81) were grown in RPMI medium with 5% Nu serum and infected with the Silvio X-10/4 of T. cruzi as described previously (Chuenkova et al., J. Exp. Med. 181:1693-1703 (1995)).
Endothelial cells and T-24 cells were plated on 24-well plates at a density of 1×10^3 cells/well, while peripheral blood mononuclear cells (PBMC) were plated in the similar wells at 1×10^6/well. Triplicat cultures of cells were incubated test agents for a predetermined amount of time. […] Cytokines and chemokines released in the culture supernatants were measured by ELISA assay following the instructions of the manufacturer (Endogen). The cytokines tested were IL-1β, IL-4, IL-8, IL-1, IL-12, IFN-γ, TNF-α, and the chemokines RANTES and MCP-1. […]
(In general: An ELISA detects its analyte on a solid surface through an enzyme-linked reagent.)

Test [4] concerns PC12 cells or Schwann cells. Nature of the test: Inhibition of apoptosis of PC12 cells or Schwann cells by synthetic peptides. It counts as cell-based.
Test [5] deals with IL-6. Put plainly: IL-6 secretion by PBMC (ELISA). It counts as cell-based, human. The note with it: 24 hours. How it is done: as §1
Endothelial cells and T-24 cells were plated on 24-well plates at a density of 1×10^3 cells/well, while peripheral blood mononuclear cells (PBMC) were plated in the similar wells at 1×10^6/well. Triplicat cultures of cells were incubated test agents for a predetermined amount of time. […] Cytokines and chemokines released in the culture supernatants were measured by ELISA assay following the instructions of the manufacturer (Endogen). The cytokines tested were IL-1β, IL-4, IL-8, […], IL-12, IFN-γ, TNF-α, and the chemokines RANTES and MCP-1. Negative controls were cells incubated in medium containing polymixin B at 10 μg/ml, and positive controls were cells incubated with bacterial LPS at the low ng/ml range (for PBMC or HIMEC) or in the μg/ml range for carcinoma T-24 cells. In some experiments, IL-1β or TNFα were used as positive control for cytokine release.
TR peptides (Table 2) were synthesized at the Tufts Synthesis Facility (Boston, Mass.). Each peptide was purified by HPLC, and the number of amino acids and molecular weight of each peptide verified by mass spectrometry. Peptides were dissolved in growth medium (10% FCS in RPMI) and added at various concentrations to 1×10^6 PBMC/well in 24-well plates. After 24 hours, IL-6 was assayed by ELISA in the conditioned supernatants.

Test [6] deals with primary cultures of rat Schwann cells. Particulars: cited from earlier work.
In the next test the test system is PC12^TrkA cells. Nature of the test: Survival of PC12^TrkA cells in serum-free medium (MTT, DAPI). In kind it is cell-based. The note with it: peptides 10 μM, PDNF 500 ng/ml, NGF 30 ng/ml, 48 hours to 5 days. How it is done: PC12^nnr5 and PC12^TrkA cells were grown in RPMI with 10% FCS and 5% horse serum as described earlier (Green et al., J. Cell Biol. 102:830-843 (1986); Chuenkova and Pereira, Mol. Biol. Cell 11: 1487-1498 (2000)). Two approaches were used to study neurite extension: 1) Plating cells (1×10^5 cells/ml) on plastic wells (LABTECH 16-well slides, Nalge Nunc International, Naperville, Ill.) coated with synthetic peptides (100 μg/ml water, 4° C., overnight) or rat tail collagen (1 mg/ml PBS, 4° C., overnight). 2) Adding peptides in solution to cells plated on uncoated substratum. Cells were grown in 1% FCS-containing RPMI for 72 hours, and reacted with 0.5 mg/ml MTT (3-[4,5-dimethylthiazol-2-yl]-2,5-diphenyltetrazolium bromide) (SIGMA, St. Louis, Mo.) in serum-free medium for 1 hour at 37° C. Light microscopy was used to visualize viable cells (i.e., containing reduced insoluble formazan) with or without extended neurites (>5 μm in length). Cell viability was also determined using the CELLTITER 96 assay (Promega, Madison, Wis.) as follows: Cells, plated at 2×10^5/ml, were treated with peptides in serum-free medium for different times and exposed to CELLTITER 96 Aqueous One Solution for 1 hour at 37° C. 2) Apoptotic cells were identified by staining with DAPI (250 ng/ml) (SIGMA) 48 hours after cells were exposed to serum-free medium with or without additives in solution, as described earlier (Chuenkova and Pereira, Mol. Biol. Cell 11:1487-1498 (2000)). […]

The subject of a further test is Erk1/2. Put plainly: Erk1/2 phosphorylation in PC12 cells. It counts as cell-based. Particulars: 5 minutes; control peptides 10 μM. How it is done:
Activation state of TrkA, Erk1/2 and Akt kinases and transcription factor CREB was analyzed by assessing phosphorylation by Western blot with appropriate phospho-specific antibodies. For this, cells were plated in complete medium at a density of 3×10^5 cells/ml overnight on 6-well plates (BECTON DICKINSON LABWARE, Franklin Lakes, N.J.). The medium was changed to serum-free medium and the cells cultured for an additional 24 hours to reduce background phosphorylation. […] Antibody reaction was visualized by horseradish peroxidase (HRP)-conjugated secondary antibody and enhanced chemiluminescence kit (ECL). Some blots were stripped in appropriate buffer (50 mM Tris HCl, pH 7.8, 2% SDS, 1% β-mercaptoethanol) at 50° C. for 60 minutes and re-probed with p42/44MAPK, Akt or CREB antibody to ensure equal loading of proteins. For immunoprecipitation experiments, cell lysates were pre-adsorbed on protein G-Sepharose for 1 hour at 4° C. and after brief centrifugation supernatants were incubated with anti-TrkA antibody for 24 hours at 4° C. with gentle rocking. Formed immunocomplexes were captured on protein G-Sepharose, eluted with SDS-PAGE sample buffer and analyzed by immunoblotting with antibody against phospho-TrkA receptor.

The test system of test [7] is IL-6. Put plainly: IL-6 secretion by normal human neutrophils. In kind it is cell-based.

Entries after “also recorded” stand apart in the source; their conditions may differ.

As to “VCNA: neuraminidase from Vibrio cholera [reference compound]”, the “neurite outgrowth in PC12 cells” value in the test with PC12 cells [1] was “did not induce neurite outgrowth; also recorded: does not induce neurite outgrowth”. For the same substance, the “protection of PC12 cells from apoptosis induced by trophic factor withdrawal” value (“protection of PC12 cells” below) in the test on PC12 cells [2] is reported as “did not”. The “IL-6 secretion by HIMEC” value in the test on IL-6 [3] is given as “did not stimulate detectable IL-6 secretion”.

For the substance GNASQNYWEDAYRC [CYN2], in test [4], the “effect of PI-3 kinase inhibitor LY294002 on the apoptosis suppressing effect of the peptide” value (“effect of PI-3 kinase inhibitor LY294002” below) was “inhibited by the PI-3 kinase inhibitor LY294002” and the “suppression of apoptosis of PC12 cells or Schwann cells” value (from here on “suppression”) is on record as “suppressed apoptosis but was less active”.

Take “DSSAHGAPSTPADSSAHGTPSTPVDSSAHGTPSTPADSSAHSTPSTPA [TR4]”: the “IL-6 secretion by PBMC” value with IL-6 [5] is on record as “active in promoting IL-6 release”.

As for “QPLRRQRVVVVPLSPRLVLLAFCRQRLPLKRMGGSYRCVNASTAN [peptide C44]”, the “neurite outgrowth in PC12 cells” value in the test with PC12 cells [1] is “had direct neurotrophic activity; also recorded: induce dose dependent outgrowth of neurites”. Moreover, the “protection of PC12 cells” value in the test on PC12 cells [2] was “protected PC12 cells from apoptosis”. In addition, in test [4], the “effect of PI-3 kinase inhibitor LY294002” value is on record as “inhibited by the PI-3 kinase inhibitor LY294002” and the “suppression” value is recorded as “potent suppressors of apoptosis”.

“DSSAHGAPSTPADSSAHGTPSTPVDSSAHGTPSTPADSSAHSTPSTPADSSAHSTPSTPA [TR5]”: the “IL-6 secretion by PBMC” value in the test with IL-6 [5] is given as “active in promoting IL-6 release”.

Take RQRLPKRMGGSYRC [peptide C14]: in the test on PC12 cells [1], the “neurite outgrowth in PC12 cells” value is on record as “had direct neurotrophic activity; also recorded: induce dose dependent outgrowth of neurites”. In the test with PC12 cells [2], the “protection of PC12 cells” value was “protected PC12 cells from apoptosis”. For the same substance, in test [4], the “effect of PI-3 kinase inhibitor LY294002” value was “inhibited by the PI-3 kinase inhibitor LY294002” and the “suppression” value was “potent suppressors of apoptosis”.

Consider “DSSAHGAPSTPADSSAHGTPSTPVDSSAHGTPSTPA [TR3]”, for which the “IL-6 secretion by PBMC” value in the test with IL-6 [5] is listed as “less active”.

Turning to lysophosphatidic acid, the “dose reported to be active as Schwann cell survival factor” value in test [6] is listed as at least 10 nM.

Take VNASTAN [peptide CYFN]: in test [4], the “effect of PI-3 kinase inhibitor LY294002” value is “inhibited by the PI-3 kinase inhibitor LY294002” and the “suppression” value is listed as “did not inhibit apoptosis”. Further, the “survival of PC12^TrkA cells in serum-free medium” value with PC12^TrkA cells was “did not significantly promoted cell survival”. Also, in the test on Erk1/2, the “Erk1/2 phosphorylation in PC12 cells” value is on record as “did not activate Erk”.

As for DSSAHGAPSTPA [peptide TR1], the “IL-6 secretion by PBMC” value in the test on IL-6 [5] is recorded as “less active”.

As for TNF-α, the “IL-6 production by normal human neutrophils” value with IL-6 [7] is on record as “did elicit secretion of IL-6”.

On to RQRLPKRMGGSYRCVNASTAH [CFN1], for which the “neurite outgrowth in PC12 cells” value in the test on PC12 cells [1] is “had direct neurotrophic activity”. Further, in test [4], the “effect of PI-3 kinase inhibitor LY294002” value is listed as “inhibited by the PI-3 kinase inhibitor LY294002” and the “suppression” value is on record as “potent suppressors of apoptosis”.

Consider DSSAHGAPSTPADSSAHGTPSTPV [TR2], for which the “IL-6 secretion by PBMC” value in the test on IL-6 [5] was “less active”.

YSVDDGETWE [peptide B2]: the “neurite outgrowth in PC12 cells” value with PC12 cells [1] was “did not induce neurite outgrowth; also recorded: did not promote neurite outgrowth”. Also, the “suppression” value in test [4] is “did not inhibit apoptosis”. Also, the “survival of PC12^TrkA cells in serum-free medium” value with PC12^TrkA cells (listed as BR) is “inactive; also recorded: did not significantly promoted cell survival”.
